Measured values as given in ChEMBL document CHEMBL1136174, “Synthesis and antimycobacterial activity of capuramycin analogues. Part 1: substitution of the azepan-2-one moiety of capuramycin” (Bioorg Med Chem Lett, 2003).
In brackets after ≈: the same amount, converted by molar mass.

Assays:
[1] = tested on: Mycolicibacterium smegmatis; assay: Antimycobacterial activity against Mycobacterium smegmatis (SANK 75075); assay type: functional
[2] = target: T1, Phospho-N-acetylmuramoyl-pentapeptide-transferase (Escherichia coli K-12, UniProt P0A6W3); assay: Inhibitory activity against translocase I
T1 sequence (P0A6W3 whole entry): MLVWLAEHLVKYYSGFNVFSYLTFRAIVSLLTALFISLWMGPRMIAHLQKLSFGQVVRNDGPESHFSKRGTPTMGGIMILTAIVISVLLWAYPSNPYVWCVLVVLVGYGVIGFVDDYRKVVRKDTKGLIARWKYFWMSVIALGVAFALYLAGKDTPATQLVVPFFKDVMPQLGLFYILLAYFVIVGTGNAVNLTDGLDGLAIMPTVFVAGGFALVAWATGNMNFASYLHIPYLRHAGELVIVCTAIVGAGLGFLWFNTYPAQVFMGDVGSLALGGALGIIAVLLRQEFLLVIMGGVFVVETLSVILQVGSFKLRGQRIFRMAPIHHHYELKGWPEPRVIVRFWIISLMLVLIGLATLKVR

[3] = tested on: Mycobacterium kansasii; assay: Antimycobacterial activity against Mycobacterium kansasii (ATCC12478); assay type: functional
[4] = tested on: Mycobacterium intracellulare; assay: Antimycobacterial activity against Mycobacterium intracellular (ATCC 1954 E-3); assay type: functional
[5] = tested on: Mycobacterium avium; assay: Antimycobacterial activity against Mycobacterium avium (NIHJ1605); assay type: functional

| Structure (SMILES) | MIC [1] [µg/mL] | IC50 [2] [nM] | MIC [3] [µg/mL] | MIC [4] [µg/mL] | MIC [5] [µg/mL] |
| --- | --- | --- | --- | --- | --- |
| CCc1ccc(NC(=O)C2=C[C@H](O)[C@H](O)[C@@H](O[C@@H](C(N)=O)[C@H]3O[C@@H](n4ccc(=O)[nH]c4=O)[C@H](O)[C@@H]3OC)O2)cc1 | 12.5 (≈ 22.2 µM) | 35.6 |  |  |  |
| CCCCCCc1ccc(NC(=O)C2=C[C@H](O)[C@H](O)[C@@H](O[C@@H](C(N)=O)[C@H]3O[C@@H](n4ccc(=O)[nH]c4=O)[C@H](O)[C@@H]3OC)O2)cc1 | 12.5 (≈ 20.2 µM) | 259 |  |  |  |
| CO[C@H]1[C@@H](O)[C@H](n2ccc(=O)[nH]c2=O)O[C@@H]1[C@@H](O[C@H]1OC(C(=O)Nc2ccccc2OCc2ccccc2)=C[C@H](O)[C@@H]1O)C(N)=O | 25 (≈ 39 µM) | 35.9 |  |  |  |
| COc1ccccc1CNC(=O)C1=C[C@H](O)[C@H](O)[C@@H](O[C@@H](C(N)=O)[C@H]2O[C@@H](n3ccc(=O)[nH]c3=O)[C@H](O)[C@@H]2OC)O1 | 50 (≈ 86.4 µM) | 484 |  |  |  |
| CO[C@H]1[C@@H](O)[C@H](n2ccc(=O)[nH]c2=O)O[C@@H]1[C@@H](O[C@H]1OC(C(=O)Nc2ccc(F)cc2)=C[C@H](O)[C@@H]1O)C(N)=O | 6.25 (≈ 11.3 µM) | 67 | 2 (≈ 3.62 µM) | 2 (≈ 3.62 µM) | 4 (≈ 7.24 µM) |
| CCCCCCNC(=O)C1=C[C@H](O)[C@H](O)[C@@H](O[C@@H](C(N)=O)[C@H]2O[C@@H](n3ccc(=O)[nH]c3=O)[C@H](O)[C@@H]2OC)O1 | 12.5 (≈ 23 µM) | 55.3 |  |  |  |
| CO[C@H]1[C@@H](O)[C@H](n2ccc(=O)[nH]c2=O)O[C@@H]1[C@@H](O[C@H]1OC(C(=O)NCCc2ccc(Cl)cc2Cl)=C[C@H](O)[C@@H]1O)C(N)=O | 50 (≈ 79.2 µM) | 30.1 |  |  |  |
| CO[C@H]1[C@@H](O)[C@H](n2ccc(=O)[nH]c2=O)O[C@@H]1[C@@H](O[C@H]1OC(C(=O)NCc2ccc(F)cc2)=C[C@H](O)[C@@H]1O)C(N)=O | 50 (≈ 88.3 µM) | 353 |  |  |  |
| CO[C@H]1[C@@H](O)[C@H](n2ccc(=O)[nH]c2=O)O[C@@H]1[C@@H](O[C@H]1OC(C(=O)Nc2ccc(C)cc2C)=C[C@H](O)[C@@H]1O)C(N)=O | 25 (≈ 44.4 µM) | 107 |  |  |  |
| CO[C@H]1[C@@H](O)[C@H](n2ccc(=O)[nH]c2=O)O[C@@H]1[C@@H](O[C@H]1OC(C(=O)Nc2ccc(F)cc2F)=C[C@H](O)[C@@H]1O)C(N)=O | 12.5 (≈ 21.9 µM) | 26.3 |  |  |  |
| CO[C@H]1[C@@H](O)[C@H](n2ccc(=O)[nH]c2=O)O[C@@H]1[C@@H](O[C@H]1OC(C(=O)NCCO)=C[C@H](O)[C@@H]1O)C(N)=O | > 100 | 179 |  |  |  |
| CO[C@H]1[C@@H](O)[C@H](n2ccc(=O)[nH]c2=O)O[C@@H]1[C@@H](O[C@H]1OC(C(=O)N[C@@H](C)c2ccccc2)=C[C@H](O)[C@@H]1O)C(N)=O | 50 (≈ 88.9 µM) | 231 |  |  |  |
| CO[C@H]1[C@@H](O)[C@H](n2ccc(=O)[nH]c2=O)O[C@@H]1[C@@H](O[C@H]1OC(C(=O)Nc2ccc(Br)cc2)=C[C@H](O)[C@@H]1O)C(N)=O | 6.25 (≈ 10.2 µM) | 32.6 | 8 (≈ 13 µM) | 0.5 (≈ 0.815 µM) | 8 (≈ 13 µM) |
| CNC(=O)C1=C[C@H](O)[C@H](O)[C@@H](O[C@@H](C(N)=O)[C@H]2O[C@@H](n3ccc(=O)[nH]c3=O)[C@H](O)[C@@H]2OC)O1 | > 100 | 381 |  |  |  |
| COc1cccc(CCNC(=O)C2=C[C@H](O)[C@H](O)[C@@H](O[C@@H](C(N)=O)[C@H]3O[C@@H](n4ccc(=O)[nH]c4=O)[C@H](O)[C@@H]3OC)O2)c1 | 50 (≈ 84.4 µM) | 32.1 |  |  |  |
| CCOCCCNC(=O)C1=C[C@H](O)[C@H](O)[C@@H](O[C@@H](C(N)=O)[C@H]2O[C@@H](n3ccc(=O)[nH]c3=O)[C@H](O)[C@@H]2OC)O1 | 100 (≈ 184 µM) | 257 |  |  |  |
| CCCCNC(=O)C1=C[C@H](O)[C@H](O)[C@@H](O[C@@H](C(N)=O)[C@H]2O[C@@H](n3ccc(=O)[nH]c3=O)[C@H](O)[C@@H]2OC)O1 | 12.5 (≈ 24.3 µM) | 544 |  |  |  |
| CO[C@H]1[C@@H](O)[C@H](n2ccc(=O)[nH]c2=O)O[C@@H]1[C@@H](O[C@H]1OC(C(=O)NCc2ccc3c(c2)OCO3)=C[C@H](O)[C@@H]1O)C(N)=O | 50 (≈ 84.4 µM) | 338 |  |  |  |
| CO[C@H]1[C@@H](O)[C@H](n2ccc(=O)[nH]c2=O)O[C@@H]1[C@@H](O[C@H]1OC(C(=O)Nc2ccc(Cl)cc2)=C[C@H](O)[C@@H]1O)C(N)=O | 6.25 (≈ 11 µM) | 31.6 | 16 (≈ 28.1 µM) | 2 (≈ 3.52 µM) | 4 (≈ 7.03 µM) |
| CO[C@H]1[C@@H](O)[C@H](n2ccc(=O)[nH]c2=O)O[C@@H]1[C@@H](O[C@H]1OC(C(=O)Nc2cccc(C)c2)=C[C@H](O)[C@@H]1O)C(N)=O | 12.5 (≈ 22.8 µM) | 13.9 | 8 (≈ 14.6 µM) | 1 (≈ 1.82 µM) | 4 (≈ 7.29 µM) |

| Structure (SMILES) | MIC [1] [µg/mL] | IC50 [2] [nM] | MIC [3] [µg/mL] | MIC [4] [µg/mL] | MIC [5] [µg/mL] |
| --- | --- | --- | --- | --- | --- |
| CO[C@H]1[C@@H](O)[C@H](n2ccc(=O)[nH]c2=O)O[C@@H]1[C@@H](O[C@H]1OC(C(=O)NCCc2ccccn2)=C[C@H](O)[C@@H]1O)C(N)=O | 25 (≈ 44.4 µM) | 195 |  |  |  |
| CCc1ccccc1NC(=O)C1=C[C@H](O)[C@H](O)[C@@H](O[C@@H](C(N)=O)[C@H]2O[C@@H](n3ccc(=O)[nH]c3=O)[C@H](O)[C@@H]2OC)O1 | 50 (≈ 88.9 µM) | 96 |  |  |  |
| COc1ccc(CNC(=O)C2=C[C@H](O)[C@H](O)[C@@H](O[C@@H](C(N)=O)[C@H]3O[C@@H](n4ccc(=O)[nH]c4=O)[C@H](O)[C@@H]3OC)O2)cc1 | 100 (≈ 173 µM) | 1210 |  |  |  |
| CO[C@H]1[C@@H](O)[C@H](n2ccc(=O)[nH]c2=O)O[C@@H]1[C@@H](O[C@H]1OC(C(=O)N[C@H]2CCC[C@@H](C)NC2=O)=C[C@H](O)[C@@H]1O)C(N)=O | 6.25 (≈ 10.7 µM) |  | 16 (≈ 27.4 µM) | 4 (≈ 6.85 µM) | 8 (≈ 13.7 µM) |
| CO[C@H]1[C@@H](O)[C@H](n2ccc(=O)[nH]c2=O)O[C@@H]1[C@@H](O[C@H]1OC(C(=O)NCCc2ccccc2)=C[C@H](O)[C@@H]1O)C(N)=O | 12.5 (≈ 22.2 µM) | 37.3 |  |  |  |
| CO[C@H]1[C@@H](O)[C@H](n2ccc(=O)[nH]c2=O)O[C@@H]1[C@@H](O[C@H]1OC(C(=O)Nc2cccc(F)c2)=C[C@H](O)[C@@H]1O)C(N)=O | 6.25 (≈ 11.3 µM) |  | 8 (≈ 14.5 µM) | 2 (≈ 3.62 µM) | 2 (≈ 3.62 µM) |
| CO[C@H]1[C@@H](O)[C@H](n2ccc(=O)[nH]c2=O)O[C@@H]1[C@@H](O[C@H]1OC(C(=O)NCCN)=C[C@H](O)[C@@H]1O)C(N)=O | 100 (≈ 199 µM) | 1200 |  |  |  |
| CO[C@H]1[C@@H](O)[C@H](n2ccc(=O)[nH]c2=O)O[C@@H]1[C@@H](O[C@H]1OC(C(=O)NCCCSC)=C[C@H](O)[C@@H]1O)C(N)=O | 50 (≈ 91.5 µM) | 128 |  |  |  |
| CO[C@H]1[C@@H](O)[C@H](n2ccc(=O)[nH]c2=O)O[C@@H]1[C@@H](O[C@H]1OC(C(=O)NCc2ccccn2)=C[C@H](O)[C@@H]1O)C(N)=O | 100 (≈ 182 µM) | 655 |  |  |  |
| CCOc1ccccc1NC(=O)C1=C[C@H](O)[C@H](O)[C@@H](O[C@@H](C(N)=O)[C@H]2O[C@@H](n3ccc(=O)[nH]c3=O)[C@H](O)[C@@H]2OC)O1 | 50 (≈ 86.4 µM) | 64 |  |  |  |
| CO[C@H]1[C@@H](O)[C@H](n2ccc(=O)[nH]c2=O)O[C@@H]1[C@@H](O[C@H]1OC(C(=O)Nc2ccccc2)=C[C@H](O)[C@@H]1O)C(N)=O | 6.25 (≈ 11.7 µM) |  | 8 (≈ 15 µM) | 4 (≈ 7.48 µM) | 16 (≈ 29.9 µM) |
| CO[C@H]1[C@@H](O)[C@H](n2ccc(=O)[nH]c2=O)O[C@@H]1[C@@H](O[C@H]1OC(C(=O)Nc2ccc(C(C)C)cc2)=C[C@H](O)[C@@H]1O)C(N)=O | 25 (≈ 43.4 µM) | 208 |  |  |  |
| CO[C@H]1[C@@H](O)[C@H](n2ccc(=O)[nH]c2=O)O[C@@H]1[C@@H](O[C@H]1OC(C(=O)NCc2ccc3ccccc3c2)=C[C@H](O)[C@@H]1O)C(N)=O | 25 (≈ 41.8 µM) | 184 |  |  |  |
| COc1ccc(CCNC(=O)C2=C[C@H](O)[C@H](O)[C@@H](O[C@@H](C(N)=O)[C@H]3O[C@@H](n4ccc(=O)[nH]c4=O)[C@H](O)[C@@H]3OC)O2)cc1 | 25 (≈ 42.2 µM) | 67.5 |  |  |  |
| CO[C@H]1[C@@H](O)[C@H](n2ccc(=O)[nH]c2=O)O[C@@H]1[C@@H](O[C@H]1OC(C(=O)Nc2ccc(F)c(F)c2)=C[C@H](O)[C@@H]1O)C(N)=O | 6.25 (≈ 11 µM) |  | 8 (≈ 14 µM) | 0.5 (≈ 0.876 µM) | 2 (≈ 3.51 µM) |
| CCCCN(C)C(=O)C1=C[C@H](O)[C@H](O)[C@@H](O[C@@H](C(N)=O)[C@H]2O[C@@H](n3ccc(=O)[nH]c3=O)[C@H](O)[C@@H]2OC)O1 | > 100 | > 4730 |  |  |  |
| COC(=O)C1=C[C@H](O)[C@H](O)[C@@H](O[C@@H](C(N)=O)[C@H]2O[C@@H](n3ccc(=O)[nH]c3=O)[C@H](O)[C@@H]2OC)O1 | > 100 | 57 |  |  |  |
| CO[C@H]1[C@@H](O)[C@H](n2ccc(=O)[nH]c2=O)O[C@@H]1[C@@H](O[C@H]1OC(C(=O)N[C@H]2CCCCNC2=O)=C[C@H](O)[C@@H]1O)C(N)=O [CAPURAMYCIN] | 12.5 (≈ 21.9 µM) | 18 | 8 (≈ 14 µM) | 8 (≈ 14 µM) | 8 (≈ 14 µM) |
| NNC(=O)c1ccncc1 [ISONIAZID] |  |  | 2 (≈ 14.6 µM) | 8 (≈ 58.3 µM) | 1 (≈ 7.29 µM) |
| CO[C@H]1/C=C/O[C@@]2(C)Oc3c(C)c(O)c4c(O)c(c(/C=N/N5CCN(C)CC5)c(O)c4c3C2=O)NC(=O)/C(C)=C\C=C\[C@H](C)[C@H](O)[C@@H](C)[C@@H](O)[C@@H](C)[C@H](OC(C)=O)[C@@H]1C [RIFAMPIN] |  |  | 0.25 (≈ 0.304 µM) | 0.125 (≈ 0.152 µM) | 0.125 (≈ 0.152 µM) |
